Earlier results, collected in paper PMC3657752 (Inflammatory bowel diseases, 2011).

How the values were obtained:
[1] = tested on: colorectal, colon, and breast cancer models
[2] = tested on: Experimental Autoimmune Encephalomyelitis (EAE) model; conditions: promoting permissive remyelination of spinal cord

CCN(CC)CCNc1ccc2ncn3c4ccc(O)cc4c(=O)c1c23 [Symadex]
activity in models of colorectal, colon, and breast cancer [1]: demonstrated activity | activity in EAE model [2]: active
